Data: the supplement of paper PMC6045584
± gives the standard deviation of the averaged measurements.

How the values were obtained:
[1] = compound: CC(=O)O[C@H]1C(=O)[C@@]2(C)[C@H]([C@H](OC(=O)c3ccccc3)[C@]3(O)C[C@H](OC(=O)[C@H](O)[C@@H](NC(=O)c4ccccc4)c4ccccc4)C(C)=C1C3(C)C)[C@]1(OC(C)=O)CO[C@@H]1C[C@@H]2O [PACLITAXEL]; test: surviving fraction relative to DMSO-only wells; higher = less growth inhibition; conditions: exposure time: 5 days
How it was run: (§1)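 Log-phase tumour cell lines, 250–500 cells per well in 384-well plates, received inhibitors at 0.5, 1, 5, 10, 50, 100, 500 and 1000 nM continuously for five days, starting 24 hours after seeding. Viability was quantified with CellTiter-Glo luminescence and normalised to the median of DMSO-only wells to give surviving fraction. Three screens were run per line, and a line stayed in only with replicate Pearson r >0.7 and median Z' >0.3.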

[2] = compound: COc1cc2ncnc(Nc3ccc(F)c(Cl)c3)c2cc1OCCCN1CCOCC1 [GEFITINIB]; test: as above; conditions: exposure time: 5 days
How it was run: as §1

Row | Test System | surviving fraction ([1]; 0.5 nM) | surviving fraction ([1]; 1 nM) | surviving fraction ([1]; 5 nM) | surviving fraction ([1]; 10 nM) | surviving fraction ([1]; 50 nM) | surviving fraction ([1]; 100 nM) | surviving fraction ([1]; 500 nM) | surviving fraction ([1]; 1000 nM) | surviving fraction ([2]; 0.5 nM) | surviving fraction ([2]; 1 nM) | surviving fraction ([2]; 5 nM) | surviving fraction ([2]; 10 nM) | surviving fraction ([2]; 50 nM) | surviving fraction ([2]; 100 nM) | surviving fraction ([2]; 500 nM) | surviving fraction ([2]; 1000 nM)
1 | SJSA1 BONE | 0.942 ± 0.048 | 0.833 ± 0.041 | 0.342 ± 0.0057 | 0.18 ± 0.013 | 0.135 ± 0.0021 | 0.113 ± 0.0021 | 0.107 ± 0.01 | 0.114 ± 0.017 | 1.15 ± 0.059 | 1.59 ± 0.071 | 1.62 ± 0.018 | 0.602 ± 0.04 | 1.8 ± 0.065 | 1.67 ± 0.033 | 1.68 ± 0.052 | 1.68 ± 0.018
2 | SKBR3 BREAST | 0.925 ± 0.13 | 0.413 ± 0.061 | 0.165 ± 0.0059 | 0.157 ± 0.02 | 0.135 ± 0.023 | 0.139 ± 0.013 | 0.123 ± 0.015 | 0.136 ± 0.028 | 1 ± 0.18 | 1.04 ± 0.14 | 1.04 ± 0.089 | 1.02 ± 0.11 | 1 ± 0.062 | 0.844 ± 0.026 | 0.361 ± 0.0087 | 0.249 ± 0.03
3 | SNU475 LIVER | 0.8 ± 0.034 | 0.649 ± 0.026 | 0.282 ± 0.018 | 0.2 ± 0.023 | 0.142 ± 0.014 | 0.138 ± 0.0065 | 0.132 ± 0.029 | 0.137 ± 0.008 | 1.05 ± 0.096 | 1.05 ± 0.05 | 1.01 ± 0.016 | 1.03 ± 0.05 | 1.02 ± 0.045 | 0.979 ± 0.038 | 0.939 ± 0.021 | 0.898 ± 0.028
4 | SUM44 BREAST | 0.927 ± 0.021 | 0.515 ± 0.041 | 0.403 ± 0.0066 | 0.278 ± 0.0095 | 0.241 ± 0.019 | 0.213 ± 0.0074 | 0.218 ± 0.0062 | 0.202 ± 0.011 | 1.27 ± 0.43 | – | 1.2 ± 0.32 | 1.19 ± 0.23 | 1.45 ± 0.42 | 1.33 ± 0.32 | 1.33 ± 0.49 | 1.14 ± 0.22
5 | SUM149 BREAST | 0.809 ± 0.053 | 0.452 ± 0.11 | 0.0573 ± 0.004 | 0.0463 ± 0.0085 | 0.0357 ± 0.00058 | 0.0373 ± 0.0038 | 0.0337 ± 0.006 | 0.0307 ± 0.0023 | 1.16 ± 0.077 | 1.15 ± 0.098 | 1.08 ± 0.052 | 1.15 ± 0.12 | 0.926 ± 0.016 | 0.8 ± 0.026 | 0.487 ± 0.04 | 0.448 ± 0.076
6 | SUM149.B1*.S BREAST | 0.994 ± 0.029 | 1.02 ± 0.048 | 0.238 ± 0.027 | 0.158 ± 0.029 | 0.1 ± 0.0056 | 0.0972 ± 0.0036 | 0.091 ± 0.0063 | 0.097 ± 0.0076 | 1.11 ± 0.044 | 1.1 ± 0.027 | 1.11 ± 0.021 | 1.1 ± 0.023 | 1.1 ± 0.026 | 1.1 ± 0.06 | 1.03 ± 0.034 | 0.98 ± 0.032
7 | SUM159 BREAST | 1.13 ± 0.24 | 1.1 ± 0.15 | 0.57 ± 0.024 | 0.179 ± 0.0045 | 0.12 ± 0.0095 | 0.107 ± 0.0015 | 0.124 ± 0.0017 | 0.137 ± 0.02 | 1.1 ± 0.026 | 1.1 ± 0.034 | 1.09 ± 0.02 | 1.06 ± 0.025 | 1.08 ± 0.014 | 1.04 ± 0.031 | 1.03 ± 0.036 | 1.036 ± 0.0092
8 | SYO1 SYNOVIAL | 0.828 ± 0.041 | 0.592 ± 0.015 | 0.107 ± 0.0096 | 0.0752 ± 0.0059 | 0.056 ± 0.0057 | 0.0522 ± 0.0059 | 0.0456 ± 0.0087 | 0.048 ± 0.009 | 1.05 ± 0.068 | 0.97 ± 0.049 | 0.982 ± 0.068 | 0.98 ± 0.012 | 0.984 ± 0.017 | 0.898 ± 0.024 | 1 ± 0.021 | 0.935 ± 0.024
9 | T47D BREAST | 0.718 ± 0.018 | 0.579 ± 0.01 | 0.307 ± 0.0054 | 0.265 ± 0.027 | 0.226 ± 0.011 | 0.222 ± 0.022 | 0.214 ± 0.0067 | 0.226 ± 0.023 | 1.08 ± 0.027 | 1.05 ± 0.064 | 1.07 ± 0.061 | 1.03 ± 0.029 | 1.13 ± 0.015 | 1.083 ± 0.01 | 1.065 ± 0.0084 | 1.06 ± 0.021
10 | U2OS BONE | 1 ± 0.037 | 0.985 ± 0.016 | 0.488 ± 0.011 | 0.271 ± 0.012 | 0.106 ± 0.0087 | 0.0817 ± 0.0093 | 0.0593 ± 0.0085 | 0.059 ± 0.001 | 1.03 ± 0.057 | 0.9987 ± 0.0084 | 1.03 ± 0.015 | 0.989 ± 0.0078 | 1.04 ± 0.027 | 1.04 ± 0.031 | 0.959 ± 0.0095 | 0.98 ± 0.048
11 | VCAP PROSTATE | 0.846 ± 0.11 | 0.666 ± 0.052 | 0.179 ± 0.038 | 0.0997 ± 0.0076 | 0.077 ± 0.015 | 0.0693 ± 0.0068 | 0.0677 ± 0.022 | 0.0697 ± 0.0086 | 1.13 ± 0.089 | 1.11 ± 0.14 | 1.13 ± 0.12 | 1.15 ± 0.14 | 1.19 ± 0.083 | 1.08 ± 0.056 | 1.21 ± 0.16 | 1.07 ± 0.076
12 | VP229 BREAST | 1.05 ± 0.091 | 0.93 ± 0.067 | 0.516 ± 0.064 | 0.364 ± 0.041 | 0.338 ± 0.013 | 0.27 ± 0.019 | 0.279 ± 0.052 | 0.293 ± 0.024 | 1.14 ± 0.062 | 1.08 ± 0.09 | 1.07 ± 0.033 | 0.974 ± 0.098 | 0.875 ± 0.084 | 0.681 ± 0.042 | 0.347 ± 0.028 | 0.281 ± 0.008
13 | YAMATO SYNOVIAL | 1.04 ± 0.16 | 0.891 ± 0.036 | 0.488 ± 0.069 | 0.464 ± 0.043 | 0.377 ± 0.012 | 0.359 ± 0.021 | 0.346 ± 0.0061 | 0.426 ± 0.016 | 1.24 ± 0.098 | 1.21 ± 0.05 | 1.25 ± 0.043 | 1.36 ± 0.15 | 1.42 ± 0.086 | 1.32 ± 0.1 | 1.35 ± 0.08 | 1.09 ± 0.046
14 | ZR751 BREAST | 0.774 ± 0.1 | 0.628 ± 0.042 | 0.52 ± 0.087 | 0.461 ± 0.024 | 0.389 ± 0.042 | 0.437 ± 0.057 | 0.397 ± 0.021 | 0.449 ± 0.023 | 1.22 ± 0.054 | 1 ± 0.1 | 1.13 ± 0.067 | 0.983 ± 0.046 | 0.901 ± 0.071 | 0.994 ± 0.035 | 0.734 ± 0.034 | 0.802 ± 0.12
